Laboratory results published in patent publication US20110136990A1, “POLYMER DERIVATIVE OF DOCETAXEL, METHOD OF PREPARING THE SAME AND USES THEREOF” (priority 2008, published 2011).

Key:
Type in all cases: in vivo
[1] = system: human prostate cancer PC-3 cells; assay: Drug efficacy test using human prostate cancer PC-3 cells (tumor volume); conditions: nude mice, PC-3 xenograft, 15 mg/kg, tail vein every four days, three times
Procedure: Using the polymer derivative of docetaxel (PEG-pAsp-14DTX) obtained in Example 1, the following experiment was carried out. PC-3 cells were purchased from ATCC through Summit Pharmaceuticals International Corporation. PC-3 cells were cultured in a RPMI1640+10% FBS medium at 5% CO2 and 37° C., and grown to the cell number required for xenograft. The cells were suspended in physiological saline, and inoculated subcutaneously at the back of the male nude mice [Balb nu/nu, 5 week-old, Charles River Laboratories Japan, Inc.] to 3×10^6 cells/100 μl per mouse. Then, the nude mice were kept for 15 days, and drug administration was started when the tumor volume reached 81.6±5.0 mm^3 (mean±SE, in which SE represents the standard error, the same shall apply hereinafter). […] For the following four groups (n=8), changes in tumor volume and body weight over time were determined: (1) Control group (untreated), (2) 15 mg/kg of a DMSO solution of docetaxel group, (3) 15 mg/kg of PEG-pAsp-14DTX group, and (4) 20 mg/kg of PEG-pAsp-14DTX group (the dosage was the converted amount of docetaxel mg/kg/injection). […] For tumor volume, the major dimension (a mm) and the minor dimension (b mm) were measured with an electronic caliper [Mitsutoyo Corporation], and the volume was calculated according to the following equation. […]

[2] = Changes in body weight of mice bearing PC-3 cells; conditions: nude mice bearing PC-3, 15 mg/kg, tail vein every four days, three times
Procedure: Using the polymer derivative of docetaxel (PEG-pAsp-14DTX) obtained in Example 1, the following experiment was carried out. PC-3 cells were purchased from ATCC through Summit Pharmaceuticals International Corporation. PC-3 cells were cultured in a RPMI1640+10% FBS medium at 5% CO2 and 37° C., and grown to the cell number required for xenograft. The cells were suspended in physiological saline, and inoculated subcutaneously at the back of the male nude mice [Balb nu/nu, 5 week-old, Charles River Laboratories Japan, Inc.] to 3×10^6 cells/100 μl per mouse. Then, the nude mice were kept for 15 days, and drug administration was started when the tumor volume reached 81.6±5.0 mm^3 (mean±SE, in which SE represents the standard error, the same shall apply hereinafter). […] For the following four groups (n=8), changes in tumor volume and body weight over time were determined: (1) Control group (untreated), (2) 15 mg/kg of a DMSO solution of docetaxel group, (3) 15 mg/kg of PEG-pAsp-14DTX group, and (4) 20 mg/kg of PEG-pAsp-14DTX group (the dosage was the converted amount of docetaxel mg/kg/injection). […] For tumor volume, the major dimension (a mm) and the minor dimension (b mm) were measured with an electronic caliper [Mitsutoyo Corporation], and the volume was calculated according to the following equation.

[3] = Pharmacokinetic study in mice (plasma levels of DTX); conditions: male Balb/c mice, tail vein, 10 mg/kg, 5 minutes to 48 hours
Procedure: Ten mg in terms of DTX of the polymer derivative of docetaxel (PEG-pAsp-14DTX) obtained in Example 1 was precisely weighed into a sample vial, to which 1 ml of purified water was added to suspend the sample. After stirring at 4° C. for a whole day and night, it was sonicated under ice cooling for 10 minutes using a Biodisruptor (Nihon Seiki Seisakusho, High Power Unit), filtered with a 0.22 μm filter [Millipore, Millex (registered trademark) GP PES], and the filtrate was collected. The filtrate was gel-filtered (GE Healthcare Bioscience, PD-10, the elution solution: a 10% sucrose solution), and the collected polymer micelle fraction (the mean particle size 120 nm) was used in the following experiment. […]
DTX in the polymer-bound form was hydrolyzed to a free form, and total DTX was determined as follows. […] This was loaded in a HPLC sample vial and analyzed by HPLC under the following condition. The content of DTX was calculated based on the ratio of the peak area of DTX relative to the peak area derived from paclitaxel, which was used as the internal standard.
To 50 μl of the collected plasma, 20 μl of paclitaxel/50% acetonitrile (20 μg/mL) as the internal standard and 300 μl of ethyl acetate were added in this order, and stirred vigorously for one minute at room temperature. […] This was loaded in a HPLC sample vial and analyzed by HPLC […]

Compound: CC(=O)O[C@@]12CO[C@@H]1C[C@H](O)[C@@]1(C)C(=O)[C@H](O)C3=C(C)[C@@H](OC(=O)[C@H](O)[C@@H](NC(=O)OC(C)(C)C)c4ccccc4)C[C@@](O)([C@@H](OC(=O)c4ccccc4)[C@H]21)C3(C)C [DMSO solution of docetaxel, docetaxel]
- tumor growth compared to control group [1]: tumor growth was markedly suppressed
- reduction in body weight [2]: marked reduction in body weight

Compound: CC(=O)O[C@@]12CO[C@@H]1C[C@H](O)[C@@]1(C)C(=O)[C@H](O)C3=C(C)[C@@H](OC(=O)[C@H](O)[C@@H](NC(=O)OC(C)(C)C)c4ccccc4)C[C@@](O)([C@@H](OC(=O)c4ccccc4)[C@H]21)C3(C)C [docetaxel solution, docetaxel]
- changes in plasma levels with time (docetaxel) [3]: disappears rapidly
